Source: paper PMC8317065, “UPLC-MS/MS Method for Analysis of Endocannabinoid and Related Lipid Metabolism in Mouse Mucosal Tissue” (Frontiers in Physiology, 2021)

Test system: FAE metabolism
Assay: THL oral gavage: levels of FAEs in jejunum mucosa, lung and plasma
Format: in vivo, mouse
Method: Adult C57BL/6J male mice were food-deprived for 24 h prior to harvest with ad libitum access to water. To prevent coprophagia, animals were maintained on elevated wire-bottom cages for a 72-hour acclimation period and during the 24-hour food deprivation. One hour prior to harvest, mice received an oral gavage (100 μL of 10 mg/mL) of the DGL inhibitor, THL, in polyethylene glycol (PEG) or PEG alone as control. Jejunum intestinal epithelium and lungs were harvested as described above (see section “Tissue Harvest and Preparation for Enzyme Assays”).
Frozen tissue samples were weighed and homogenized in 1.0 mL of methanol containing the internal standards [^2H5]-2-AG (500 pmol), [^2H4]-AEA (1 pmol), and [^2H4]-OEA (10 pmol). Lipids were extracted using chloroform (2.0 mL) prior to being washed with 1.0 mL 0.2-micron ultra-purified water. Following centrifugation (1,500 × g, 15 min, 4°C), the lower organic phase was collected and dried under N2 steam (99.998% pure). A second chloroform wash (1.0 mL) was then performed followed by another centrifugation (1,500 × g, 15 min, 4°C) and collection of the lower phase. Samples were reconstituted in 2.0 mL of chloroform and purified via open-bed silica gel column chromatography. Columns were washed with a 9:1 chloroform:methanol mixture to elute MAGs and FAEs for collection. Collected eluates were dried under N2 steam (99.998% pure) and resuspended in 0.2 mL of methanol:chloroform (1:1) prior to analysis via UPLC-MS/MS (see section “Quantitation of MAGs and FAEs”).
Data was acquired using equipment described above (see section “UPLC-MS/MS Detection of Analytes”) and using the elution protocol described above (see section “Quantitation of MAG Biosynthetic Enzyme Activity Assay Products”). Cone voltage and collision energy for each analyte are as follows, respectively: AEA = 30 v, 14 v; [^2H4]-AEA = 26 v, 16v; OEA = 28 v, 16 v; [^2H4]-OEA = 48 v, 14 v; DHEA = 30 v, 50 v; 2-AG (20:4) = 30 v, 12 v; [^2H5]-2-AG = 25 v, 44v; 2-DG (22:6) = 34 v, 14 v; 2-PG (16:0) = 18 v, 10 v; 2-OG (18:1) = 42 v, 10 v; 2-LG (18:2) = 30 v, 10 v. MS/MS detection was in positive ion mode and capillary voltage set at 0.1 kV. Extracted ion chromatograms were used to quantify AEA (m/z = 348.3 > 62.0), [^2H4]-AEA (m/z = 352.3 > 66.1), OEA (m/z = 326.4 > 62.1), [^2H4]-OEA (m/z = 330.4 > 66.0), DHEA (m/z = 372.3 > 91.0), 2-AG (m/z = 379.3 > 287.3), [^2H5]-2-AG (m/z = 384.3 > 93.4), 2-DG (m/z = 403.3 > 311.1), 2-PG (m/z = 331.3 > 239.3), 2-OG (m/z = 357.4 > 265.2), and 2-LG (m/z = 355.3 > 263.3). Quantitation occurred using a stable isotope dilution method to detect protonated adducts of the ions [M + H] + in MRM mode. Acyl migration is known to occur in many MAG species following silica-gel purification, therefore the sum of 1-AG and 2-AG, 1-PG and 2-PG, 1-OG and 2-OG, and 1-DG and 2-DG are reported ([Stella et al., 1997]). The established lower limit of quantitation (LLOQ: signal to noise ratio >10) for 2-AG, 2-DG, 2-PG, 2-OG, and 2-LG was 0.5 pmol. The LLOQ for AEA, OEA, and DHEA was 0.008 pmol.

[1] = THL 1 mg oral, 1 h prior to tissue harvest

CCCCCCCCCCC[C@@H](C[C@@H]1OC(=O)[C@H]1CCCCCC)OC(=O)[C@H](CC(C)C)NC=O [THL, tetrahydrolipstatin]
AEA level in jejunum mucosa (THL 1 mg oral gavage 1 h prior to harvest, vehicle 2.85 ± 0.29): 2.41 ± 0.24 pmol/g | AEA level in lung (THL 1 mg oral gavage 1 h prior to harvest, vehicle 3.14 ± 0.14): 2.85 ± 0.08 pmol/g | AEA level in plasma (THL 1 mg oral gavage 1 h prior to harvest, vehicle 3.76 ± 0.07): 3.11 ± 0.50 pmol/mL | DHEA level in plasma (THL 1 mg oral gavage 1 h prior to harvest, vehicle 6.41 ± 0.76): 5.62 ± 0.43 pmol/mL | DHEA level in lung (THL 1 mg oral gavage 1 h prior to harvest, vehicle 14.25 ± 2.18): 16.13 ± 1.19 pmol/g | DHEA level in jejunum mucosa (THL 1 mg oral gavage 1 h prior to harvest, vehicle 14.53 ± 1.25): 18.97 ± 5.08 pmol/g | OEA level in plasma (THL 1 mg oral gavage 1 h prior to harvest, vehicle 41.19 ± 3.84): 36.12 ± 2.36 pmol/mL | OEA level in jejunum mucosa (THL 1 mg oral gavage 1 h prior to harvest, vehicle 52.23 ± 6.73): 46.83 ± 9.00 pmol/g | OEA level in lung (THL 1 mg oral gavage 1 h prior to harvest, vehicle 92.06 ± 4.99): 83.75 ± 3.44 pmol/g | effect on levels of FAEs in jejunum mucosa vs vehicle [1]: no changes | effect on levels of FAEs in lung tissue vs vehicle [1]: no changes | effect on plasma concentrations of FAEs vs vehicle [1]: unaffected
